Test results as given in PubChem BioAssay (NCI).
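Following 48 hours of exposure in 96-well plates, responses at five concentrations were used to interpolate endpoints linearly. GI50 is the concentration that inhibits growth by half. The concentration for full growth arrest is given as TGI.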

Assays:
Experiment in all cases: DTP human tumour cell line panel, 48 h
CAKI-1 renal = test system: CAKI-1 renal
COLO 205 colon = test system: COLO 205 colon
HCC-2998 colon = test system: HCC-2998 colon
IGROV1 ovarian = test system: IGROV1 ovarian
SK-MEL-2 melanoma = test system: SK-MEL-2 melanoma
UACC-62 melanoma = test system: UACC-62 melanoma
RXF 393 renal = test system: RXF 393 renal
MDA-MB-231 breast = test system: MDA-MB-231 breast
MDA-MB-435 = test system: MDA-MB-435
T-47D breast = test system: T-47D breast

SMILES	TGI (CAKI-1 renal)	TGI (COLO 205 colon)	TGI (HCC-2998 colon)	TGI (IGROV1 ovarian)	TGI (SK-MEL-2 melanoma)	TGI (UACC-62 melanoma)	TGI (RXF 393 renal)	GI50 (COLO 205 colon)	GI50 (HCC-2998 colon)	GI50 (IGROV1 ovarian)	GI50 (MDA-MB-231 breast)	TGI (MDA-MB-231 breast)	GI50 (MDA-MB-435)	TGI (MDA-MB-435)	GI50 (RXF 393 renal)	GI50 (SK-MEL-2 melanoma)	GI50 (T-47D breast)	TGI (T-47D breast)	GI50 (UACC-62 melanoma)	GI50 (CAKI-1 renal)
CC(=O)C1=C(O)C2C3c4c[nH]c5cccc(c45)CC3C(C)(C)N2C1=O (stereo unspecified)	> 100 µM	> 100 µM	63.4 µM	> 100 µM	44.6 µM	> 100 µM														
CCOc1ccc(NC(=O)CC2C(=O)Nc3ccccc3S2(=O)=O)cc1 (stereo unspecified)		> 100 µM	> 100 µM	> 100 µM	> 100 µM		> 100 µM													
NC(=O)NC1C(C(N)=O)N(Cc2ccccc2)C(=O)N1Cc1ccccc1 (stereo unspecified)	> 100 µM	> 100 µM	> 100 µM	> 100 µM	> 100 µM	> 100 µM														
Cc1cc(Cl)nc(N(CCCNc2ccnc3cc(Cl)ccc23)Cc2ccco2)n1		3.08 µM	5.67 µM	8.26 µM	9.19 µM	6.8 µM	4.55 µM	1.43 µM	1.97 µM	1.92 µM	2.13 µM	5.93 µM	2.31 µM	7.17 µM	1.41 µM	2.82 µM	1.73 µM	6.43 µM	2.32 µM	
Cc1ccc(S(=O)(=O)N/N=C(/c2nc3ccc([N+](=O)[O-])cc3[nH]c2=O)C(O)c2ccc(C(O)/C(=N\NS(=O)(=O)c3ccc(C)cc3)c3nc4ccc([N+](=O)[O-])cc4[nH]c3=O)cc2)cc1 (stereo unspecified)		> 100 µM	77.4 µM	> 100 µM	> 100 µM	> 100 µM	> 100 µM													
O=C1c2ccccc2C(=O)c2c(OCCOCCO)cccc21	74.2 µM	> 100 µM		> 100 µM	> 100 µM	19.1 µM	> 100 µM					> 100 µM		> 100 µM				> 100 µM		
Brc1ccc2ns[s+]c2c1	> 100 µM	> 41.9 µM	25.8 µM	> 100 µM	> 100 µM	> 20.5 µM	> 100 µM													
CC(=O)NC(CC(C)C)C(=O)NC(Cc1ccccc1)C(=S)N1CCCC1 (stereo unspecified)	> 100 µM	> 100 µM	> 100 µM	> 100 µM	> 100 µM	> 100 µM	> 100 µM													
CC(C)(C)C(C#N)(C#N)c1ccc(C(C#N)(C#N)C(C)(C)C)nn1	> 100 µM	> 100 µM	> 100 µM	> 100 µM	> 100 µM	> 100 µM	> 100 µM													
CC1=C(C(=O)Nc2cc(F)c(F)cc2F)C(c2ccc([N+](=O)[O-])cc2)C(C(=O)Nc2cc(F)c(F)cc2F)=C(C)N1	> 100 µM	> 100 µM	60.5 µM	> 100 µM	> 100 µM		63.2 µM													
O=C(NNc1ccccc1)/C(=C/c1ccc2c(c1)OCO2)NC(=O)c1ccccc1	> 100 µM	> 100 µM	> 100 µM	> 100 µM	> 100 µM	> 100 µM	> 100 µM													
CN(C)CCNC(=O)c1cccc2c1Oc1c(cccc1[N+](=O)[O-])O2	1.16 µM	4.28 µM	2.62 µM	8.9 µM	3.06 µM	1.77 µM	4.94 µM							14.4 µM				1.93 µM		
CC[C@H](C)[C@H](NC(=O)CN(C)C)C(=O)N(C)[C@H](C[C@@H](OC(C)=O)c1nc(C(=O)NC23CC(C(=O)OC)(C2)C3)cs1)C(C)C	> 25 µM	5.59 µM	> 25 µM	> 25 µM	> 25 µM	> 25 µM		0.144 µM	0.49 µM	0.412 µM	0.287 µM	> 12.2 µM	0.0461 µM	0.298 µM		1.51 µM	> 25 µM	> 25 µM	0.237 µM	12.3 µM
COc1cc2c(=O)[nH]c3cc([N+](=O)[O-])ccc3c2cc1[N+](=O)[O-]	> 100 µM	> 100 µM	> 100 µM	> 100 µM	> 100 µM	> 100 µM	92.2 µM	4.11 µM	19.5 µM	3.87 µM	6.1 µM	> 100 µM			6.99 µM	22.9 µM	3.52 µM	> 100 µM	4.55 µM	6.18 µM
O=P(O)(O)C1(P(=O)(O)O)CC1	> 100 µM	> 100 µM	> 100 µM	> 100 µM	> 100 µM	> 100 µM	> 100 µM													
COc1ccc(/C=C/C(=O)c2sc(-n3nc(-c4ccccc4)cc3-c3ccccc3)nc2C)cc1	> 100 µM	> 100 µM	> 100 µM	> 100 µM	> 100 µM	> 100 µM	> 100 µM	> 100 µM	> 100 µM	> 100 µM					> 100 µM	> 100 µM			> 100 µM	
CCN1CCN(C(=O)[C@]23CCC(C)(C)C[C@@H]2C2=CC[C@@H]4[C@@]5(C)C/C(=C/c6ccncc6)C(=O)C(C)(C)[C@@H]5CC[C@@]4(C)[C@]2(C)CC3)CC1	2.95 µM	3.64 µM	2.89 µM	3.13 µM	3.33 µM	2.82 µM	2.81 µM	1.64 µM	1.47 µM	1.6 µM	1.63 µM	3.16 µM	1.41 µM	2.81 µM	1.45 µM	1.73 µM			1.46 µM	1.45 µM
COc1cc2nc3cc([N+](=O)[O-])ccc3c(NCCNCC(C)(C)O)c2cc1OC	11 µM	1.54 µM		2.16 µM	1.75 µM		2.87 µM	0.37 µM		0.457 µM	0.451 µM	2.41 µM	0.6 µM	1.93 µM	1.07 µM	0.432 µM	0.437 µM	2.91 µM		2.42 µM
Cc1cc(N2CCN(C)CC2)n2nc(-c3ccc(Cl)cc3)nc2n1	> 100 µM	> 100 µM		> 100 µM	> 100 µM	> 100 µM	> 100 µM					> 100 µM		> 100 µM				> 100 µM		
CCCCCCC[CH2][Sn]1([CH2]CCCCCCC)[O]C(=O)c2cccnc2[O]1	> 100 µM	> 100 µM	> 100 µM	> 100 µM	> 100 µM	> 100 µM	> 100 µM	> 100 µM	> 100 µM	> 100 µM					> 100 µM	> 100 µM			> 100 µM	> 100 µM
